Test results as given in ChEMBL document CHEMBL4184323, “Structure-Guided Design, Synthesis, and Characterization of Next-Generation Meprin β Inhibitors” (J Med Chem, 2018).

Legend:
Meprin A subunit beta = biological target: T1, Meprin A subunit beta (Homo sapiens, UniProt Q16820)
T1 sequence (Q16820 whole entry): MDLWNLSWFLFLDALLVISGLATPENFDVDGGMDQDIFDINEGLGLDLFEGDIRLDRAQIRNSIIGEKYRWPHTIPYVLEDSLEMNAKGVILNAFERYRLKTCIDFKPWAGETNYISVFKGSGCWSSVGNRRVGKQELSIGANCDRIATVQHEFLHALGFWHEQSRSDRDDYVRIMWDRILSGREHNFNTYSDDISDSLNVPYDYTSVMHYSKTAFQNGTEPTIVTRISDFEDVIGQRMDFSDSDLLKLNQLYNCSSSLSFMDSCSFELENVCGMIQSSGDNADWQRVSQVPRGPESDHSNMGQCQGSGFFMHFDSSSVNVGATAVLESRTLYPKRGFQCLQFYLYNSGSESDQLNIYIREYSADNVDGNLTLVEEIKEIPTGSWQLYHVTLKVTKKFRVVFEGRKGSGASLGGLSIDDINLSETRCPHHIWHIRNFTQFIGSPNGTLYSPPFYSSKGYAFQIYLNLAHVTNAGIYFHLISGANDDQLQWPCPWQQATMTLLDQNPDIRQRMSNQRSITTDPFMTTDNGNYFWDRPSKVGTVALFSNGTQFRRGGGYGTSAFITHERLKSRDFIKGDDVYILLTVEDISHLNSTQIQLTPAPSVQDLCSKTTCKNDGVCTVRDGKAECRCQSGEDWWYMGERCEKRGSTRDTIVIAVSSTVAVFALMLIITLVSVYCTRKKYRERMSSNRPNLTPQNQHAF
Description: Inhibition of recombinant human meprin beta expressed in yeast using Abz-YVAEAPK(Dnp)G-OH as substrate by fluorescence assay

SH-SY5Y [1] = assay: Cytotoxicity in human SH-SY5Y cells assessed as cell viability at 30 uM after 24 hrs by CytoTox-ONE-based assay relative to control; format: functional; conditions: read-out: Activity
ADAM10 = biological target: T2, ADAM10 (Homo sapiens, UniProt O14672); assay: Inhibition of human ADAM10 assessed as residual activity using Abz-LANAVRSSSR-(DapDnp)-AR-NH2 as substrate at 200 uM by fluorescence assay relative to control; conditions: human ADAM10 enzyme, probe Abz-LANAVRSSSR-(DapDnp)-AR-NH2, read-out: Activity
T2 sequence (O14672 whole entry): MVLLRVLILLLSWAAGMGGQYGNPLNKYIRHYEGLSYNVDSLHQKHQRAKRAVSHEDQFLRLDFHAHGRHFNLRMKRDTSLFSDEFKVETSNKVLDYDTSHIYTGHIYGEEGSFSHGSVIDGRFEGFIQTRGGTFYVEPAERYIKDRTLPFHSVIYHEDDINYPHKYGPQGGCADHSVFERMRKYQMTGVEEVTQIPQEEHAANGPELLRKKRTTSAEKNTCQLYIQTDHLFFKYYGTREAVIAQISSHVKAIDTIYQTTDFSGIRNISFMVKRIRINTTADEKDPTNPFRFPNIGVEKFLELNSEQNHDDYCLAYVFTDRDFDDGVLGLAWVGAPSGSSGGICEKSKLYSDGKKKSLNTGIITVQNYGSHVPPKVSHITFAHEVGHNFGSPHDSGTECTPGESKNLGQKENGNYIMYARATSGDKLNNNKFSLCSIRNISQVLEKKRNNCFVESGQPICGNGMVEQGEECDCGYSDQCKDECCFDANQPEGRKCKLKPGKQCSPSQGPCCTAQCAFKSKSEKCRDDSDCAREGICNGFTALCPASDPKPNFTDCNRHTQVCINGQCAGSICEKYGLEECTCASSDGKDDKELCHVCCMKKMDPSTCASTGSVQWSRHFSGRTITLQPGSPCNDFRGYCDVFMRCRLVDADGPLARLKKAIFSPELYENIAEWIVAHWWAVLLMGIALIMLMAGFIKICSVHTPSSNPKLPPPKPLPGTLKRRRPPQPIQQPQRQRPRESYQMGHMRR

[2] = Drug absorption in Sprague-Dawley rat at 10 mg/kg, ip by LC-MS analysis; format: ADME, organism-based; conditions: in vivo, read-out: Fabs
[3] = Tmax in Sprague-Dawley rat at 10 mg/kg, ip by LC-MS analysis; format: ADME, organism-based; conditions: in vivo
Rattus norvegicus = assay: Volume of distribution in Sprague-Dawley rat at 10 mg/kg, po by LC-MS analysis; format: ADME, organism-based; conditions: in vivo
[4] = Cmax in Sprague-Dawley rat at 10 mg/kg, po by LC-MS analysis; format: ADME, organism-based; parameters: dose 10 mg/kg, route oral; conditions: in vivo
MMP13 = MMP13 (Homo sapiens, UniProt P45452); assay: Inhibition of human MMP13 assessed as residual activity using Mca-PLGL-(DapDnp)-AR-NH2 as substrate at 200 uM by fluorescence assay relative to control; conditions: human MMP13 enzyme, probe Mca-PLGL-(DapDnp)-AR-NH2, read-out: Activity
[5] = Cmax in Sprague-Dawley rat at 10 mg/kg, ip by LC-MS analysis; format: ADME, organism-based; parameters: dose 10 mg/kg, route intraperitoneal; conditions: in vivo
MMP2 = MMP2 (Homo sapiens, UniProt P08253); assay: Inhibition of human MMP2 assessed as residual activity using Mca-PLGL-(DapDnp)-AR-NH2 as substrate at 200 uM by fluorescence assay relative to control; conditions: human MMP2 enzyme, probe Mca-PLGL-(DapDnp)-AR-NH2, read-out: Activity
CYP3A4 = CYP3A4 (Homo sapiens, UniProt P08684); assay: Inhibition of recombinant human CYP3A4 expressed in baculosomes assessed as residual activity at 25 uM using BOMCC substrate by fluorescence assay relative to control; format: ADME; conditions: probe BOMCC, read-out: Activity
MMP9 = MMP9 (Homo sapiens, UniProt P14780); assay: Inhibition of human MMP9 assessed as residual activity using Mca-PLGL-(DapDnp)-AR-NH2 as substrate at 200 uM by fluorescence assay relative to control; conditions: human MMP9 enzyme, probe Mca-PLGL-(DapDnp)-AR-NH2, read-out: Activity
HepG2 [6] = assay: Cytotoxicity in human HepG2 cells assessed as cell viability at 30 uM after 24 hrs by CytoTox-ONE-based assay relative to control; format: functional; conditions: HepG2, 24 h, read-out: Activity
[7] = Tmax in Sprague-Dawley rat at 10 mg/kg, po by LC-MS analysis; format: ADME, organism-based; conditions: in vivo
BMP1 = biological target: T3, BMP1 (Homo sapiens, UniProt P13497); assay: Inhibition of human BMP1 expressed in Escherichia coli assessed as residual activity using Abz-YVADAPK(Dnp)G-OH as substrate at 200 uM by fluorescence assay relative to control; conditions: probe Abz-YVADAPK(Dnp)G-OH, read-out: Activity
T3 sequence (P13497 whole entry): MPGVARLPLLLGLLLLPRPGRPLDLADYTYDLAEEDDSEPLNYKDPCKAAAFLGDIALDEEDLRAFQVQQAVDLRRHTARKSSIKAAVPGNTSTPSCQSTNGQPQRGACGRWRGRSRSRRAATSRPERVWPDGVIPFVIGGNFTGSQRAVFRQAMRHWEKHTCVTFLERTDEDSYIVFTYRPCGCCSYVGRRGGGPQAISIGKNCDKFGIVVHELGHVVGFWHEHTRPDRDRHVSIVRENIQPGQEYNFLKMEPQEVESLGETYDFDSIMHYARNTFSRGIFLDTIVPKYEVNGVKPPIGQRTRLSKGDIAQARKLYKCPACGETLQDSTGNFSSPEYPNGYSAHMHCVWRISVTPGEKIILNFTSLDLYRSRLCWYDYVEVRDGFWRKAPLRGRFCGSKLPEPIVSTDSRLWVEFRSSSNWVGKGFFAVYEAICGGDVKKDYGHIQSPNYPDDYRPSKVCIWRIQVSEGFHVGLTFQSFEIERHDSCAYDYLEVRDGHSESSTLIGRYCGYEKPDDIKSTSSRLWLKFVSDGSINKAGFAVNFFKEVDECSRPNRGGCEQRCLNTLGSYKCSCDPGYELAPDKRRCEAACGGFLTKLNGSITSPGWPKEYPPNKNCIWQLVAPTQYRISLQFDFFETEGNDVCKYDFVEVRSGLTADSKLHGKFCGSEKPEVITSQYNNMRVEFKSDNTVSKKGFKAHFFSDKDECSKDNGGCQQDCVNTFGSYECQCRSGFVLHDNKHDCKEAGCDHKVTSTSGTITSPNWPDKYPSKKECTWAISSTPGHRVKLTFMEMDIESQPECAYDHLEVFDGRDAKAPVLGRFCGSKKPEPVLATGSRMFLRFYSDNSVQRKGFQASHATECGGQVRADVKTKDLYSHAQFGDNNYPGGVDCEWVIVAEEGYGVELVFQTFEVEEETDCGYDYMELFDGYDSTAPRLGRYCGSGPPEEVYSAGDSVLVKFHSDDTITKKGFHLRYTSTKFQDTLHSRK

[8] = Half life in Sprague-Dawley rat at 6 mg/kg, iv by LC-MS analysis; format: ADME, organism-based; conditions: in vivo
[9] = Clearance in Sprague-Dawley rat at 6 mg/kg, iv by LC-MS analysis; format: ADME, organism-based; conditions: in vivo
ADAM17 = ADAM17 (Homo sapiens, UniProt P78536); assay: Inhibition of human ADAM17 assessed as residual activity using Abz-LANAVRSSSR-(DapDnp)-AR-NH2 as substrate at 200 uM by fluorescence assay relative to control; conditions: human ADAM17 enzyme, probe Abz-LANAVRSSSR-(DapDnp)-AR-NH2, read-out: Activity
[10] = Drug absorption in Sprague-Dawley rat at 10 mg/kg, po by LC-MS analysis; format: ADME, organism-based; conditions: in vivo, read-out: Fabs
CYP2C9 = CYP2C9 (Homo sapiens, UniProt P11712); assay: Inhibition of recombinant human CYP2C9 expressed in baculosomes assessed as residual activity at 25 uM using BOMCC substrate by fluorescence assay relative to control; format: ADME; conditions: probe BOMCC, read-out: Activity
[11] = Volume of distribution at steady state in Sprague-Dawley rat at 6 mg/kg, iv by LC-MS analysis; format: ADME, organism-based; conditions: in vivo, read-out: Vdss
SH-SY5Y [12] = assay: Cytotoxicity in human SH-SY5Y cells assessed as cell viability at 100 uM after 24 hrs by CytoTox-ONE-based assay relative to control; format: functional; conditions: read-out: Activity
Homo sapiens = species on record: Homo sapiens; assay: Selectivity ratio of IC50 for recombinant human meprin alpha expressed in insect cells to IC50 for recombinant human meprin beta expressed in yeast
HepG2 [13] = assay: Cytotoxicity in human HepG2 cells assessed as cell viability at 100 uM after 24 hrs by CytoTox-ONE-based assay relative to control; format: functional; conditions: HepG2, 24 h, read-out: Activity

CYP3A4, sequence (P08684 whole entry): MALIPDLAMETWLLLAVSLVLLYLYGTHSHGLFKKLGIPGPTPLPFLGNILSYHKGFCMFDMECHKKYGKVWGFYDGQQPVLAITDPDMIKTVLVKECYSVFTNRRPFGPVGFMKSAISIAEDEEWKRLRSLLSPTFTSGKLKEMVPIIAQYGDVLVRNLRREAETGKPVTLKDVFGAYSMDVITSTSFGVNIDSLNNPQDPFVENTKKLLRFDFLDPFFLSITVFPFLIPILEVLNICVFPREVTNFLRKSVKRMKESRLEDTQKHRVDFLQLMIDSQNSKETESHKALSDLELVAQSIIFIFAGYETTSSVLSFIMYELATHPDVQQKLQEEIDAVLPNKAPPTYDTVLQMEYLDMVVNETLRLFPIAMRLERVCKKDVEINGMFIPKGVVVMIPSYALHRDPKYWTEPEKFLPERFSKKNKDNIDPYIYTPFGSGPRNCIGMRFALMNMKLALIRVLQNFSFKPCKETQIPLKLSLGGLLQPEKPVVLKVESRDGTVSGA
ADAM17, sequence (P78536 whole entry): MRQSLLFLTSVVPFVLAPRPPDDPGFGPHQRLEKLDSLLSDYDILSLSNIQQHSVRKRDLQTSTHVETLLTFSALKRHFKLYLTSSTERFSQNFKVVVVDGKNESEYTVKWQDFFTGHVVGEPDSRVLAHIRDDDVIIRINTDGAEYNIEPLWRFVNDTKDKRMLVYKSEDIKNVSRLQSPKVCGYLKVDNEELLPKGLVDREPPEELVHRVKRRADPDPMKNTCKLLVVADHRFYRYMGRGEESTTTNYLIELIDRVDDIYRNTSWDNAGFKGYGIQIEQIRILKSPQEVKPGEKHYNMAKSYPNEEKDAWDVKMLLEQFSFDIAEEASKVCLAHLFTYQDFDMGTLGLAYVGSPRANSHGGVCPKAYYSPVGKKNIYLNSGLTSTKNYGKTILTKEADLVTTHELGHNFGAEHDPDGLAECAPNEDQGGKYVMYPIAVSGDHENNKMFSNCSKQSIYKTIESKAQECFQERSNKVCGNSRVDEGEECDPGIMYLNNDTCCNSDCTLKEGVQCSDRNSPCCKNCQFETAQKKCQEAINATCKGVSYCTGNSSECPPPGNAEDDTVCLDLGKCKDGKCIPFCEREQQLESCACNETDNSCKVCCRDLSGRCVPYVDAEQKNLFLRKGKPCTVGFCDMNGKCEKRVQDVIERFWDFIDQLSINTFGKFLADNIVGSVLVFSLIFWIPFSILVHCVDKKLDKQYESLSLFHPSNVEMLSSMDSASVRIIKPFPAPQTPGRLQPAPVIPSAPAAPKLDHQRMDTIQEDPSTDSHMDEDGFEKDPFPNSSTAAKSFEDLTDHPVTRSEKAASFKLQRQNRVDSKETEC
MMP9, sequence (P14780 whole entry): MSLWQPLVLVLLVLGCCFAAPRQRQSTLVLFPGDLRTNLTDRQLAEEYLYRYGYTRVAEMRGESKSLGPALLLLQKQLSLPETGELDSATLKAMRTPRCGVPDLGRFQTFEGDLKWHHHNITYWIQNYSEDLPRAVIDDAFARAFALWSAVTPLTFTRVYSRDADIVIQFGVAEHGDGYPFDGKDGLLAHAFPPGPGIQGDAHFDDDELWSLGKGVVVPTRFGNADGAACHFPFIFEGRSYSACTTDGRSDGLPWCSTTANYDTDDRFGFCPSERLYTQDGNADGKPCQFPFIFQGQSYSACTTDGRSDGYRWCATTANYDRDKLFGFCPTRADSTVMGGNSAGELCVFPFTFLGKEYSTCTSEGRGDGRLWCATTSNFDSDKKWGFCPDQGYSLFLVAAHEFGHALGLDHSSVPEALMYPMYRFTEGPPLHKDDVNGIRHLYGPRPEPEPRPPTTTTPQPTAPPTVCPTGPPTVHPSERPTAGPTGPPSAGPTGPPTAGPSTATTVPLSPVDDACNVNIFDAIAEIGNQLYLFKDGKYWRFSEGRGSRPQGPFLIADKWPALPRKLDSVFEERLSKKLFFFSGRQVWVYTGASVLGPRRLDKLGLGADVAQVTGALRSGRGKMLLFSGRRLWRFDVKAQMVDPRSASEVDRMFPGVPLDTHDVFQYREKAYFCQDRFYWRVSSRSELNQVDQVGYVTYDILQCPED
MMP2, sequence (P08253 whole entry): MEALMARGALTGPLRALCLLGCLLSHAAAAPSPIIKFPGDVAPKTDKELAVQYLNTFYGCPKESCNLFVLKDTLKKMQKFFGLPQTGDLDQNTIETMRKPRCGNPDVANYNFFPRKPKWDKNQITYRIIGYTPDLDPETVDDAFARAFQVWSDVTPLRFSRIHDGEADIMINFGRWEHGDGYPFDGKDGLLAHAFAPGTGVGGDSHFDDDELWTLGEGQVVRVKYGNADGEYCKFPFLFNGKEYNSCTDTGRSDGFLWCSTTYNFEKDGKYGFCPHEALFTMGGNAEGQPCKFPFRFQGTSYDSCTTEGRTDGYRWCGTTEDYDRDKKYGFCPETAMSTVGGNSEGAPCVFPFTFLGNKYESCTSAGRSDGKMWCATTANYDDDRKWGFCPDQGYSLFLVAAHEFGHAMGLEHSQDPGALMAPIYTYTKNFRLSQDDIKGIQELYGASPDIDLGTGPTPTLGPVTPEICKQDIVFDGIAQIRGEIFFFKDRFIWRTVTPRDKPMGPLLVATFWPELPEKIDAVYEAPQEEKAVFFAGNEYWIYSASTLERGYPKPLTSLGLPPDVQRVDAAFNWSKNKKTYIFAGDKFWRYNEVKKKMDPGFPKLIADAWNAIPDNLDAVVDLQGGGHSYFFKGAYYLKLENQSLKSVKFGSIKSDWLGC
CYP2C9, sequence (P11712 whole entry): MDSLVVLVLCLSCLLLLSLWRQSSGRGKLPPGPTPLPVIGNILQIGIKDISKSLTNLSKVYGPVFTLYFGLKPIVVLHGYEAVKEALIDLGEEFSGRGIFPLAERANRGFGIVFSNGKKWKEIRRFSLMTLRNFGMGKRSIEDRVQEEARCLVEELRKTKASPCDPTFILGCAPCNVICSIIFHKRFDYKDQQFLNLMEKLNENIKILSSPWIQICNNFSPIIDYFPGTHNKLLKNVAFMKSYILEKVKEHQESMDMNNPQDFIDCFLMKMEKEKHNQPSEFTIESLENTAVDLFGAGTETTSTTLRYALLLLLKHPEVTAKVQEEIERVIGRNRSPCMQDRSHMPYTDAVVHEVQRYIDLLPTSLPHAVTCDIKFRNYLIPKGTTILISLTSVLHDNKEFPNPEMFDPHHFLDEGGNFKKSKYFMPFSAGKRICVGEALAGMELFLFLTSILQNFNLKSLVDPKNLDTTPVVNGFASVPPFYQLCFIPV

| Compound | IC50 (Meprin A subunit beta) [nM] | activity at 200 µM (ADAM10) [%] | activity at 200 µM (MMP13) [%] | activity at 200 µM (MMP2) [%] | activity at 25 µM (CYP3A4) [%] | activity at 200 µM (MMP9) [%] | activity at 200 µM (ADAM17) [%] | activity at 25 µM (CYP2C9) [%] | other results |
| --- | --- | --- | --- | --- | --- | --- | --- | --- | --- |
| CCCOc1cccc(CN(CC(=O)NO)Cc2cccc(C(=O)O)c2)c1 | 2250 |  |  |  |  |  |  |  |  |
| COc1cc(F)c(CN(CC(=O)NO)Cc2cccc(C(=O)O)c2)c(F)c1 | 347 |  |  |  |  |  |  |  |  |
| O=C(CN(Cc1ccc(Cl)c(O)c1F)Cc1ccc(Cl)c(O)c1F)NO |  | 97 | 93 | 41 | 76 | 81 | 82 | 68 | viability at 30 µM (SH-SY5Y [1]): 93%; Fa [2]: 84%; Tmax [3]: 10.2 min; Vd (Rattus norvegicus): 0.058 L; Cmax [4]: 810 ng/mL; Cmax [5]: 10900 ng/mL; viability at 30 µM (HepG2 [6]): 101%; Tmax [7]: 15 min; activity at 200 µM (BMP1): 50%; half-life [8]: 114 min; clearance [9]: 21 mL/min/kg; Fa [10]: 9%; Vd [11]: 0.33 L/kg |
| O=C(CN(Cc1ccc(-c2ccccc2)cc1)Cc1cccc(C(=O)O)c1)NO | 1280 |  |  |  |  |  |  |  |  |
| COc1c(Cl)ccc(CN(CC(=O)NO)Cc2ccc(Cl)c(OC)c2F)c1F | 12800 |  |  |  |  |  |  |  |  |
| COc1ccc(S(=O)(=O)N(CC(=O)NO)Cc2cccc(C(=O)O)c2)cc1 |  | < 1 | < 1 | < 1 |  | 2 | < 1 |  |  |
| COc1ccc(CN(CC(=O)NO)Cc2cccc(C(=O)O)c2)cc1F | 375 |  |  |  |  |  |  |  |  |
| COc1ccc(CN(CC(=O)NO)Cc2cccc(C(=O)O)c2)cc1 | 77 | 87 | 94 | 68 | 80 | 85 | 60 | 102 | viability at 100 µM (SH-SY5Y [12]): 87%; Ratio IC50 (Homo sapiens): 40; viability at 100 µM (HepG2 [13]): 100% |
| O=C(CN(Cc1ccc(Cl)cc1)Cc1cccc(C(=O)O)c1)NO |  | 95 | 78 | 69 | 79 | 88 | 57 | 77 | viability at 30 µM (SH-SY5Y [1]): 97%; viability at 30 µM (HepG2 [6]): 104% |
| O=C(CN(Cc1ccc(F)c(O)c1F)Cc1ccc(F)c(O)c1F)NO |  | 99 | 102 | 67 | 87 | 94 | 92 | 101 | viability at 30 µM (SH-SY5Y [1]): 92%; Vd (Rattus norvegicus): 0.045 L; Cmax [4]: 1080 ng/mL; viability at 30 µM (HepG2 [6]): 99%; Tmax [7]: 7.8 min; activity at 200 µM (BMP1): 34%; half-life [8]: 66 min; clearance [9]: 21.8 mL/min/kg; Fa [10]: 5%; Vd [11]: 0.41 L/kg |
| O=C(CN(Cc1ccc(C(=O)O)cc1)Cc1ccc(C(=O)O)cc1)NO | 524 |  |  |  |  |  |  |  |  |
| Cc1ccc(CN(CC(=O)NO)Cc2cccc(C(=O)O)c2)cc1 | 386 |  |  |  |  |  |  |  |  |
